Data published in PMC5878090 (Journal of controlled release : official journal of the …, 2015).
pIC50, pKd: −log10 of the molar value.

How the values were obtained:
U87MG cells [1] = test: Anti-proliferation assay; format: cell-based; settings: Homo sapiens, U-87 MG, 72 h, read-out: anti-proliferation IC50
U87MG cells [2] = test: Cell-cycle analysis; format: cell-based, human; settings: 10 µM, 24 h, PI labeling
[3] = system: U87MG subcutaneous xenografts; test: Anti-glioblastoma study in subcutaneous U87MG tumor model; format: in vivo, Balb/c nude mice; settings: 50 mg/kg oral every 2 days until 9th day, n = 8; saline 8.3-fold
Integrin αvβ3 = Integrin αvβ3 (UniProt P06756); test: SPR

## COc1ccc(C2=N[C@@H](c3ccc(Cl)cc3)[C@@H](c3ccc(Cl)cc3)N2C(=O)N2CCNC(=O)C2)c(OC(C)C)c1 [Nutlin-3]
U87MG cells [1]
  pIC50: 5.12
U87MG cells [2]
  cell-cycle arrest: effective cell-cycle arrest in the G1 and G2 phases

## Cn1nnc2c(C(N)=O)ncn2c1=O [TMZ, temozolomide]
[3]
  tumor size fold increase on day 14 versus start of treatment: 0.3 fold

## c(RGDyK)-conjugated poly(ethylene glycol)-block-poly(lactic acid) micelle carrying the sPMI peptide
Integrin αvβ3
  pKd: 5.39
